Source: patent US9533985B2, “Sulfonamide derivative and medicinal use thereof” (EA Pharma Co., Ltd., priority 2012, dated 2017)

Tests used:
Format in all cases: cell-based
α4β7 integrin [1] = target: T1, α4β7 integrin (Homo sapiens (Human), UniProt P13612+P26010); test: MAdCAM-1/α4β7 integrin binding inhibitory activity evaluation test (RPMI-8866 cell adhesion to MAdCAM-1/Fc); conditions: for Selectivity: IC50 in VCAM-1/α4β1 test divided by IC50 in MAdCAM-1/α4β7 test; for IC50: RPMI-8866 cells binding to recombinant mouse MAdCAM-1/Fc, no serum
Experimental: The ability of test substances to inhibit the binding of a human B cell line, RPMI-8866, which is known to express α4β7 integrin, to MAdCAM-1 was measured. To 96-well microtiter plates, recombinant mouse MAdCAM-1/Fc (R&D systems) solution (0.75 μg/mL) diluted with buffer A (carbonate buffer solution, pH 9.6) was added at 50 μL/well, followed by incubation at 4° C. overnight. After washing once with PBS, Block Ace (Snow Brand Milk Products Company, Limited) was added at 150 μL/well, followed by incubation at room temperature for 2 hours. After removal, washing was conducted once with PBS. 100 μL of each test substance diluted with binding buffer (DMEM containing 40 mM HEPES, 0.2% BSA, and 4 mM MnCl2) to various concentrations and 100 μL of RPMI-8866 cells (2×10^6 cell/mL) were added to the plates coated with MAdCAM-1/Fc (5×10^5 cells/well), followed by incubation at 30° C. for 15 minutes to 60 minutes. After the cells were bound to each well, unbound cells were removed by washing with PBS. To the plates, buffer C (PBS containing 1.5% Triton X-100) was added at 50 μL/well to lyse the bound RPMI-8866 cells. To 30 μL of the cell lysate, 30 μL of Substrate Buffer (Promega, CytoTox 96 Non-Radioactive Cytotoxicity Assay) was added, and the reaction was allowed to proceed at room temperature in a dark place for 30 minutes. To each well, 30 μL of Stop Solution (Promega, CytoTox 96 Non-Radioactive Cytotoxicity Assay) was added, and the absorbance at 490 nm was measured by using a plate reader. Here, by the obtained absorbance, the activity of the lactate dehydrogenase (LDH) dissolved into the supernatant of each well was detected. In other words, the absorbance was proportional to the number of the RPMI-8866 cells bound to MAdCAM-1 and remaining on the plate. The test was duplicated. The binding ratios of the cells at various concentrations were determined, with the absorbance of a well containing no test substance taken as 100%. Then, the concentration IC50, at which 50% binding inhibition was achieved, was calculated. […] Note that the selectivity in the table was determined by dividing the IC50 value in VCAM-1/α4β1 Integrin Binding Inhibitory Activity Evaluation Test by the IC50 value in the MAdCAM-1/α4β7 integrin binding inhibitory activity evaluation test.

α4β1 integrin = α4β1 integrin (Homo sapiens (Human), UniProt P05556+P13612); test: VCAM-1/α4β1 integrin binding inhibitory activity evaluation test (Jurkat cell adhesion to VCAM-1/Fc); conditions: Jurkat cells binding to recombinant human VCAM-1/Fc
Experimental: The ability of test substances to inhibit the binding of a human T-cell line, Jurkat, which is known to express α4β1 integrin, to VCAM-1 was measured. To 96-well microtiter plates, recombinant human VCAM-1/Fc (R&D systems) solution (1 μg/mL) diluted with buffer A (carbonate buffer, pH 9.6) was added at 50 μL/well, followed by incubation at 4° C. overnight. After washing once with PBS, Block Ace (Snow Brand Milk Products Company, Limited) was added at 150 μL/well, followed by incubation at room temperature for 2 hours. After removal, washing was conducted once with PBS. 100 μL of each test substance diluted with a binding buffer (DMEM containing 40 mM HEPES, 0.2% BSA, and 4 mM MnCl2) to various concentrations and 100 μL of the Jurkat cells (2×10^6 cell/mL) were added to the plates coated with VCAM-1/Fc (5×10^5 cells/well), followed by incubation at 30° C. for 15 minutes to 60 minutes. After the cells were bound to each well, unbound cells were removed by washing with PBS. To the plates, buffer C (PBS containing 1.5% Triton X-100) was added at 50 μL/well to lyse the bound Jurkat cells. To 30 μL of the cell lysate, 30 μL of Substrate Buffer (Promega, CytoTox 96 Non-Radioactive Cytotoxicity Assay) was added, and the reaction was allowed to proceed at room temperature in a dark place for 30 minutes. To each well, 30 μL of Stop Solution (Promega, CytoTox 96 Non-Radioactive Cytotoxicity Assay) was added, and the absorbance at 490 nm was measured by using a plate reader. Here, by the obtained absorbance, the activity of the lactate dehydrogenase (LDH) dissolved into the supernatant of each well was detected. In other words, the absorbance was proportional to the number of the Jurkat cells bound to VCAM-1 and remaining on the plate. The test was duplicated. The binding ratios of the cells at various concentrations were determined, with the absorbance of a well containing no test substances taken as 100%. Then, the concentration IC50, at which 50% binding inhibition was achieved, was calculated. […] Note that, among the compounds synthesized in the corresponding Examples, the compounds in the free form (Compounds A-1 to A-39) were used as the test compounds. Hereinafter, the same shall apply.

α4β7 integrin [2] = target: T1, α4β7 integrin; test: MAdCAM-1/α4β7 integrin binding inhibitory activity evaluation test in the presence of serum (1); conditions: RPMI-8866 cells binding to mouse MAdCAM-1/Fc, human serum at final concentration of 50%; read-out: α4β7 with serum added, IC50
Experimental: The ability of test substances to inhibit the binding of a human B cell line, RPMI-8866, which is known to express α4β7 integrin, to MAdCAM-1 was measured. To 96-well microtiter plates, recombinant mouse MAdCAM-1/Fc (R&D systems) solution (1 μg/mL) diluted with buffer A (carbonate buffer, pH 9.6) was added at 50 μL/well, followed by incubation at 4° C. overnight. After washing once with PBS, Block Ace (Snow Brand Milk Products Company, Limited) was added at 150 μL/well, followed by incubation at room temperature for 2 hours. After removal, washing was conducted once with PBS. 100 μL of each test substance diluted with a binding buffer (DMEM containing 40 mM HEPES, 0.2% BSA, and 4 mM MnCl2) to various concentrations and 100 μL of RPMI-8866 cells (2×10^6 cell/mL) were added to plates coated with MAdCAM-1/Fc (5×10^5 cells/well) with human serum being contained at a final concentration of 50%, followed by incubation at 30° C. for 15 minutes to 60 minutes. After the cells were bound to each well, unbound cells were removed by washing with PBS. To the plates, buffer C (PBS containing 1.5% Triton X-100) was added at 50 μL/well to lyse the bound RPMI-8866 cells. To 30 μL of the cell lysate, 30 μL of Substrate Buffer (Promega, CytoTox 96 Non-Radioactive Cytotoxicity Assay) was added, and the reaction was allowed to proceed at room temperature in a dark place for 30 minutes. To each well, 30 μL of Stop Solution (Promega, CytoTox 96 Non-Radioactive Cytotoxicity Assay) was added, and the absorbance at 490 nm was measured by using a plate reader. Here, by the obtained absorbance, the activity of the lactate dehydrogenase (LDH) dissolved into the supernatant of each well was detected. In other words, the absorbance was proportional to the number of the RPMI-8866 cells bound to MAdCAM-1 and remaining on the plate. The test was duplicated. The binding ratios of the cells at various concentrations were determined, with the absorbance of a well containing no test substance taken as 100%. Then, the concentration IC50, at which 50% binding inhibition was achieved, was calculated.

Sequence of α4β1 integrin (P13612 34-1032): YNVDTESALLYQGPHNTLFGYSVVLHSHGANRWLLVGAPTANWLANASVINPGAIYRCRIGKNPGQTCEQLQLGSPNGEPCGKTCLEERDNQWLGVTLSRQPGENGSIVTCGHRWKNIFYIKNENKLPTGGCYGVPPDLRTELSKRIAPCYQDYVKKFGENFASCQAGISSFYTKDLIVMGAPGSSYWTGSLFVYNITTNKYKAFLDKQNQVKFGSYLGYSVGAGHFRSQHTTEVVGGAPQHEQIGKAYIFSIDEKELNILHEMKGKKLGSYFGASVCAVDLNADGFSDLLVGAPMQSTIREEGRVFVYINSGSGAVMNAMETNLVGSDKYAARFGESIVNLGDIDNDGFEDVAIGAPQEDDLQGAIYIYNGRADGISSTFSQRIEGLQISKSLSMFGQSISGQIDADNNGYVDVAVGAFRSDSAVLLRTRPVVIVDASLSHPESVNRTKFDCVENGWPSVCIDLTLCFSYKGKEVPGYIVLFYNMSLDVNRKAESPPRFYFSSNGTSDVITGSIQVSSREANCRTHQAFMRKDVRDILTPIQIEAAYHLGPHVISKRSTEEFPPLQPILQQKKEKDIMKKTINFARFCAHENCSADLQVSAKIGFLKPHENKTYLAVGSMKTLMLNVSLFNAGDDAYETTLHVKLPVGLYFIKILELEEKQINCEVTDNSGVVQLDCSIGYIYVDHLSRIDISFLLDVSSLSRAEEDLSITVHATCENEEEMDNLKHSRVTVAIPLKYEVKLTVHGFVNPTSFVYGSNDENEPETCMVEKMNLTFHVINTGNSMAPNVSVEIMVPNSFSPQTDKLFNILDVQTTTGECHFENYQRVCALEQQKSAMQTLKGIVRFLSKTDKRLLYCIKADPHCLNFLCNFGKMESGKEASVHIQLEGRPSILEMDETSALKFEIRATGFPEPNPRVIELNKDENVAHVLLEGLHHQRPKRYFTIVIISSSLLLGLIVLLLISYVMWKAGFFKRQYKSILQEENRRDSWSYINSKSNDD
Sequence of α4β1 integrin (P05556 21-798): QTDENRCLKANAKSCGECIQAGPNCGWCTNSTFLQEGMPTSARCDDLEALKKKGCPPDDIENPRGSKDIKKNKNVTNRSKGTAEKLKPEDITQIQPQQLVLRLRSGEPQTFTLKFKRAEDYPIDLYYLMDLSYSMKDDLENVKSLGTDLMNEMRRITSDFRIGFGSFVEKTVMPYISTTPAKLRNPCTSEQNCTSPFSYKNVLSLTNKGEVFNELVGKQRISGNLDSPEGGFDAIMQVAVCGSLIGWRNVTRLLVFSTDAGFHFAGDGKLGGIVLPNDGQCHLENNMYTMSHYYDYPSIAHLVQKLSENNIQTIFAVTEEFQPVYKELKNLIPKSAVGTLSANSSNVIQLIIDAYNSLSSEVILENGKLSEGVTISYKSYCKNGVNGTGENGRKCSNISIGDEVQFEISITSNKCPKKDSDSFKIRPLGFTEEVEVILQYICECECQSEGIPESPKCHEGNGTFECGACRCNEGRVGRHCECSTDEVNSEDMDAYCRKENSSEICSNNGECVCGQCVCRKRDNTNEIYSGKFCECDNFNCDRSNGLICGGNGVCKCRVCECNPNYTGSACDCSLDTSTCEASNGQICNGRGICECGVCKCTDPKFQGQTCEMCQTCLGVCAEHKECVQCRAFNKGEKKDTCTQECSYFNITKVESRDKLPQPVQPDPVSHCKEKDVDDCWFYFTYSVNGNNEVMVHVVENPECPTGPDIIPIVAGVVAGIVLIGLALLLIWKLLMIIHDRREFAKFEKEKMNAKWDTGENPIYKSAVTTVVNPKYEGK
T1 sequence (P13612 34-1032): as the sequence (P13612 34-1032) above
T1 sequence (P26010 20-798): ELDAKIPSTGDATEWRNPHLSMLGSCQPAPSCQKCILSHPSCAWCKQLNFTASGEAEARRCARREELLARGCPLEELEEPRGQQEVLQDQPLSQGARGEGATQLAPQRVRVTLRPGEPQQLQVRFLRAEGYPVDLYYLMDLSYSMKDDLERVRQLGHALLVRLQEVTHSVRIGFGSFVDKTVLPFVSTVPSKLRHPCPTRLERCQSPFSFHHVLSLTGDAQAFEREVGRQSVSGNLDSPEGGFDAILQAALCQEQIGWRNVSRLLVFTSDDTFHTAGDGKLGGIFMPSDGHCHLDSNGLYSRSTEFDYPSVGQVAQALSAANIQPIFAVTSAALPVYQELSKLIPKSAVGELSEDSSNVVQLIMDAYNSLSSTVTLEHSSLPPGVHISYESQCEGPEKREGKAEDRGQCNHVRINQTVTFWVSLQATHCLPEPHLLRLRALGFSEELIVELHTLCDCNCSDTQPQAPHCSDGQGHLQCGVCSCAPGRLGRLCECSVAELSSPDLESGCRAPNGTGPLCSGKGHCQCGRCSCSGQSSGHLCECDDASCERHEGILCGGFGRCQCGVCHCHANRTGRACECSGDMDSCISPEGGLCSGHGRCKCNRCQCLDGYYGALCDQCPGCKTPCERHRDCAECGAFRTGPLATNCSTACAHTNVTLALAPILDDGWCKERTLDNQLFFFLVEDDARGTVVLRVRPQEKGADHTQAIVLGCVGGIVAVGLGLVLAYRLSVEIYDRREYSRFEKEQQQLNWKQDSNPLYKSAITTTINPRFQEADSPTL

Row | SMILES | Selectivity (α4β7 integrin [1]) | IC50 (α4β7 integrin [1]) | IC50 (α4β1 integrin) | IC50 (α4β7 integrin [2])
1 | Cn1ccc(=O)n(-c2ccc(C[C@H](NC(=O)c3c(F)cc(NS(=O)(=O)c4ccc(-n5cncn5)cn4)cc3F)C(=O)O)cc2)c1=O [Example 56, N-[2,6-Difluoro-4-({[5-(1H-1,2,4-triazol-1-yl)pyridin-2-yl]sulfonyl}amino)benzoyl]-4-(3-methyl-2,6-dioxo-3,6-dihydropyrimidin-1(2H)-yl)-L-phenylalanine] | 80 | 2 nM | 160 nM | 5.4 nM
2 | Cn1c(=O)n(-c2ccc(C[C@H](NC(=O)c3c(F)cc(NS(=O)(=O)c4ccc(-n5nccn5)cc4)cc3F)C(=O)O)cc2)c(=O)c2ccncc21 [Example 61, N-[2,6-Difluoro-4-({[4-(2H-1,2,3-triazol-2-yl)phenyl]sulfonyl}amino)benzoyl]-4-(1-methyl-2,4-dioxo-1,4-dihydropyrido[3,4-d]pyrimidin-3(2H)-yl)-L-phenylalanine] | 330 | 0.46 nM | 150 nM | 8.7 nM
3 | Cn1c(=O)n(-c2ccc(C[C@H](NC(=O)c3ccc(NS(=O)(=O)c4ccncc4)cc3F)C(=O)O)cc2)c(=O)c2ccncc21 [Example 39, N-{2-Fluoro-4-[(pyridin-4-yl-sulfonyl)amino]benzoyl}-4-(1-methyl-2,4-dioxo-1,4-dihydropyrido[3,4-d]pyrimidin-3(2H)-yl)-L-phenylalanine] | 170 | 0.83 nM | 140 nM | 27 nM
4 | Cn1ccc(=O)n(-c2ccc(C[C@H](NC(=O)c3c(F)cc(NS(=O)(=O)c4ccc(-c5cncnc5)cn4)cc3F)C(=O)O)cc2)c1=O [Example 63, N-(2,6-Difluoro-4-{[(5-pyrimidin-5-yl-pyridin-2-yl)sulfonyl]amino}benzoyl)-4-(3-methyl-2,6-dioxo-3,6-dihydropyrimidin-1(2H)-yl)-L-phenylalanine] | 600 | 0.8 nM | 480 nM | 11 nM
5 | COc1cc2c(=O)n(-c3ccc(C[C@H](NC(=O)c4c(F)cc(NS(=O)(=O)c5ccc(-c6ncccn6)cc5)cc4F)C(=O)O)cc3)c(=O)n(C)c2cn1 [Example 46, N-(2,6-Difluoro-4-{[(4-pyrimidin-2-yl-phenyl)sulfonyl]amino}benzoyl)-4-(6-methoxy-1-methyl-2,4-dioxo-1,4-dihydropyrido[3,4-d]pyrimidin-3(2H)-yl)-L-phenylalanine] | 180 | 1.1 nM | 200 nM | 15 nM
6 | Cn1c(=O)n(-c2ccc(C[C@H](NC(=O)c3c(F)cc(NS(=O)(=O)c4ccc(-n5cncn5)nc4)cc3F)C(=O)O)cc2)c(=O)c2ccncc21 [Example 55, N-[2,6-Difluoro-4-({[6-(1H-1,2,4-triazol-1-yl)pyridin-3-yl]sulfonyl}amino)benzoyl]-4-(1-methyl-2,4-dioxo-1,4-dihydropyrido[3,4-d]pyrimidin-3(2H)-yl)-L-phenylalanine] | 170 | 0.27 nM | 45 nM | 4.6 nM
7 | CCNC(=O)c1ccc(S(=O)(=O)Nc2cc(F)c(C(=O)N[C@@H](Cc3ccc(-n4c(=O)ccn(C)c4=O)cc3)C(=O)O)c(F)c2)cc1 [Example 44, N-{4-[({4-[(Ethylamino)carbonyl]phenyl}sulfonyl)amino]-2,6-difluorobenzoyl}-4-(3-methyl-2,6-dioxo-3,6-dihydropyrimidin-1(2H)-yl)-L-phenylalanine] | 260 | 0.62 nM | 160 nM | 16 nM
8 | Cn1cnc2c1c(=O)n(-c1ccc(C[C@H](NC(=O)c3c(F)cc(NS(=O)(=O)c4ccc(-c5ccncc5)cc4)cc3F)C(=O)O)cc1)c(=O)n2C [Example 75, N-(2,6-Difluoro-4-{[(4-pyridin-4-yl-phenyl)sulfonyl]amino}benzoyl)-4-(3,7-dimethyl-2,6-dioxo-2,3,6,7-tetrahydro-1H-purin-1-yl)-L-phenylalanine] | 820 | 0.38 nM | 310 nM | 4.2 nM
9 | Cn1ccc(=O)n(-c2ccc(C[C@H](NC(=O)c3c(F)cc(NS(=O)(=O)c4ccc(-n5cccc5)cc4)cc3F)C(=O)O)cc2)c1=O [Example 64, N-[2,6-Difluoro-4-({[4-(1H-pyrrol-1-yl)phenyl]sulfonyl}amino)benzoyl]-4-(3-methyl-2,6-dioxo-3,6-dihydropyrimidin-1(2H)-yl)-L-phenylalanine] | 750 | 2 nM | 1500 nM | 22 nM
10 | CN(C)c1ccc2c(c1)c(=O)n(-c1ccc(C[C@H](NC(=O)c3c(F)cc(NS(=O)(=O)c4ccc(-n5cncn5)cc4)cc3F)C(=O)O)cc1)c(=O)n2C [Example 47, N-[2,6-Difluoro-4-({[4-(1H-1,2,4-triazol-1-yl)phenyl]sulfonyl}amino)benzoyl]-4-[6-(dimethylamino)-1-methyl-2,4-dioxo-1,4-dihydroquinazolin-3(2H)-yl]-L-phenylalanine] | 1100 | 0.32 nM | 340 nM | 20 nM
